Laboratory results from PubChem BioAssay (NCI).
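Results reflect a 48-hour exposure of cells in 96-well plates to compound at five concentrations. TGI: total growth inhibition.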

Legend:
Test in all cases: growth of human tumour cells (NCI), 48 h
[1] = tested on: MCF7 breast
[2] = tested on: SF-295 CNS
[3] = tested on: RPMI-8226 leukemia
[4] = tested on: SK-MEL-5 melanoma
[5] = tested on: IGROV1 ovarian
[6] = tested on: KM12 colon
[7] = tested on: SNB-75 CNS
[8] = tested on: HL-60(TB) leukemia
[9] = tested on: HCC-2998 colon
[10] = tested on: SR leukemia
[11] = tested on: OVCAR-5 ovarian
[12] = tested on: TK-10 renal
[13] = tested on: DU-145 prostate
[14] = tested on: CAKI-1 renal
[15] = tested on: HOP-92 NSCLC
[16] = tested on: CCRF-CEM leukemia
[17] = tested on: MDA-MB-231 breast
[18] = tested on: ACHN renal
[19] = tested on: NCI-H23 lung
[20] = tested on: SNB-19 CNS
[21] = tested on: 786-0 renal
[22] = tested on: SK-MEL-2 melanoma
[23] = tested on: LOX IMVI melanoma
[24] = tested on: SW-620 colon
[25] = tested on: A549 NSCLC
[26] = tested on: MOLT-4 leukemia
[27] = tested on: NCI/ADR-RES ovarian
[28] = tested on: BT-549 breast
[29] = tested on: NCI-H460 lung
[30] = tested on: MDA-MB-435
[31] = tested on: HOP-62 NSCLC
[32] = tested on: NCI-H522 lung
[33] = tested on: MALME-3M melanoma
[34] = tested on: COLO 205 colon
[35] = tested on: K-562 leukemia
[36] = tested on: OVCAR-8 ovarian
[37] = tested on: SN12C renal
[38] = tested on: HT29 colon
[39] = tested on: M14 melanoma
[40] = tested on: UACC-257 melanoma
[41] = tested on: SK-MEL-28 melanoma
[42] = tested on: HCT-15 colon
[43] = tested on: U251 CNS
[44] = tested on: PC-3 prostate
[45] = tested on: EKVX NSCLC
[46] = tested on: SF-268 CNS
[47] = tested on: UACC-62 melanoma
[48] = tested on: SK-OV-3 ovarian
[49] = tested on: RXF 393 renal
[50] = tested on: SF-539 CNS
[51] = tested on: UO-31 renal
[52] = tested on: HS 578T breast
[53] = tested on: OVCAR-4 ovarian
[54] = tested on: T-47D breast
[55] = tested on: A498 renal
[56] = tested on: NCI-H226 lung
[57] = tested on: HCT-116 colon
[58] = tested on: OVCAR-3 ovarian

Measured: TGI

O=C(NCCn1ccnn1)Nc1ccccc1
> 100 µM: [1] | [2] | [3] | [4] | [5] | [6] | [7] | [8] | [9] | [10] | [11] | [12] | [13] | [14] | [15] | [16] | [17] | [18] | [19] | [20] | [21] | [22] | [23] | [24] | [25] | [26] | [27] | [28] | [29] | [30] | [31] | [32] | [33] | [34] | [35] | [36] | [37] | [38] | [39] | [40] | [41] | [42] | [43] | [44] | [45] | [46]

O=C(OCc1ccccc1)c1nc2ccccc2n1S(=O)(=O)c1ccccc1
> 100 µM: [47] | [2] | [48] | [3] | [4] | [49] | [5] | [6] | [7] | [8] | [50] | [9] | [51] | [11] | [12] | [13] | [14] | [52] | [15] | [16] | [53] | [17] | [18] | [19] | [20] | [21] | [22] | [54] | [55] | [23] | [24] | [25] | [26] | [27] | [28] | [29] | [30] | [31] | [33] | [34] | [35] | [36] | [37] | [56] | [57] | [38] | [39] | [40] | [41] | [42] | [43] | [58] | [44] | [45] | [46]
